Here are results for three compounds from paper PMC8406319, “The dCache Chemoreceptor TlpA of Helicobacter pylori Binds Multiple Attractant and Antagonistic Ligands via Distinct Sites” (mBio, 2021).

Each structure is given as a SMILES string. Where a name gives a salt, the structure may show the parent alone.

The test system of one assay is H. pylori PMSS1 ΔtlpA. The experiment in a line: Temporal chemotaxis assay (direction changes), ΔtlpA mutant. The assay is classed as cell-based, Helicobacter pylori. To be noted: ligands 0.1-10 mM, controls 50 μM dipyridyl, 10 mM HCl. How it is done:
(§1) Cultures of H. pylori PMSS1 WT and ΔtlpA strains were grown overnight, back-diluted, and then incubated until an OD600 of 0.12 to 0.15 was reached. Cultures were treated with water (Mock) or various concentrations of compounds, as indicated. For panels C and E, the pH of cysteine, thiamine, malic acid, and α-ketoglutarate stocks was adjusted using NaOH to match the pH of the water used for the untreated control. The cells were immediately filmed, and direction changes were counted over a 3-s swimming period in at least 100 cells per treatment from 3 biological replicates. Data are normalized to the values for the untreated control for each strain, as described in Materials and Methods. Error bars represent the standard errors of the means. *, P < 0.05; **, P < 0.01; ***, P < 0.001 (comparisons to the untreated control per strain using two-way ANOVA with Dunnett’s multiple-comparison test).
To determine if chemoattractant responses toward arginine, fumarate, and cysteine were TlpA dependent, the same tracking experiments were repeated with a mutant lacking tlpA (ΔtlpA).
(§2) Swimming behavior assays were done with H. pylori PMSS1 strains grown in BB10 as described above. Cultures grown overnight were diluted to an optical density at 600 nm (OD600) of 0.1 in fresh BB10 and then incubated with shaking as described above until an OD600 of 0.12 to 0.15 was reached. […] The number of direction changes in a bacterial swimming trajectory was enumerated over a 3-s interval to determine whether each putative ligand is sensed as an attractant or repellent or elicits no response ([20], [25][–][30]). […] Each control is sensed by chemoreceptors other than TlpA ([24], [25], [29], [31]). The pH of BB10 upon treatment was independently assessed using a Denver Instruments pH meter. Prior to realizing that chemotactic responses may be due to medium acidification, we resuspended all ligands in pure water. Therefore, to be able to compare the results to those of previous experiments, we continued resuspending acidified ligands in pure water and then adjusting the pH of the resuspended ligand using NaOH. Cultures were filmed immediately after ligand addition at a ×400 magnification using a Hamamatsu C4742-95 digital camera with μManager software (version 1.4.22), mounted on a Nikon Eclipse E600 phase-contrast microscope. For the competition chemotaxis assay, cultures of H. pylori and ligands were prepared as described above. However, 1 min after the addition of a nonchemoactive ligand at a final concentration of 10 mM, a chemoactive ligand was added at a final concentration of 10 mM, and the cultures were then filmed as described above. Videos were relabeled to blind the observer to the strain identity. For each sample, >100 3-s-long bacterial tracks from three independent cultures were analyzed manually to identify stops followed by direction changes. Data for all biological replicates under each condition were combined, and the average number of direction changes in 3 s and the standard error of the mean were calculated. For each strain, data were normalized to the values for the untreated control under each experimental condition. Statistical analysis of the data for treated versus untreated samples was performed using two-way analysis of variance (ANOVA) and Dunnett’s multiple-comparison test.

For a further assay, the system named is H. pylori PMSS1 WT. The experiment in a line: Temporal chemotaxis assay (live-cell video microscopy, direction changes), WT. Format: cell-based, Helicobacter pylori. How it is done:
H. pylori chemotactic responses toward the seven putative TlpA-dependent ligands were examined by a live-cell video microscopy assay that measures the temporal chemotaxis response to test ligands. […] Acidic conditions are sensed by chemoreceptors other than TlpA ([24], [29], [31]) and potentially mask chemotactic responses to the ligands being tested.
as §1, with “For panels C and E, the pH of cysteine, thiamine, malic acid, and α-ketoglutarate stocks was adjusted using NaOH to match the pH of the water used for the untreated control.” left out
as §2, with “Prior to realizing that chemotactic responses may be due to medium acidification, we resuspended all ligands in pure water.” left out

Another assay deals with TlpALBD. As to the kind of experiment: Small-molecule ligand binding array. Also: key: + for positive binding; +/− for intermediate binding; − for no binding. Details: species or system Helicobacter pylori SS1. The note with it: ligand binding array screen; n = 3. How it is done: Small-molecule arrays were prepared and performed as previously described ([57]). Briefly, 1 μg of purified TlpALBD in phosphate-buffered saline (PBS) (pH 7.2) was incubated with a molar concentration ratio (4:2:1) of anti-His antibody (Cell Signaling), followed by incubation with a secondary antibody (Thermo Scientific) for signal amplification. The protein-antibody mix was added to an Arrayit Superepoxy III glass substrate array blocked with PBS (pH 7.2) with 1% bovine serum albumin. […] Unbound protein was washed away with PBS with 0.05% Tween. […] Three biological replicates were performed, with a total of 12 data points for each glycan tested. Binding was classified as positive for a ligand if the relative fluorescence unit value was >1-fold above the mean background (defined as the average background of negative-control spots plus 3 standard deviations [SD]) and was statistically significant (P < 0.005 by Student’s t test). Small-molecule array slide preparation and analysis were done according to MIRAGE guidelines ([58]) (outlined in Table S5).
Classification Guidelines
1. Sample: Glycan Binding Sample
Origin: Helico bact er pyl ori SS1; produce d as a reco mbinant His -tagged protein in E.
The preparation of TlpA is exp lained in the Materials and Methods se ct ion: TlpA co nst ruct desi gn and protein purifica tion.
Sample Sample is a His Tagged protein co ntaining only the periplasm ic rece ptor domain, amino […]
Please see Materials and Methods: Li ga nd bi ndi ng arra y.
Proteins were co mplexe d with mouse anti-his antibody, with se co ndary and tertiary Alexa Fluor555 antibodies (rabbit anti-mouse , goat anti-rabbit) at a molar ratio of 4:2:1.
The protein/antibody co mplex was incu bated on ice for 10 mins prior to placi ng on the Assa y array. Arrays were performed with 1 µg of co mplexe d protein incu bated on the array for protoco l 20 min. Arrays were then wash ed 3 times in Array PBS (PBS + 2 mM MgCl2 + 2 mM CaCl2) then dried by ce ntrifugation for 3 min at 300 x g. Sca nning was performed usi ng an Innopsys InnoSca n 1100AL and analyze d usi ng Mapix (Innopsy s). Yes/ no binding was determined by si x posi tive replica te sp ots in three replica te exp eriments. […]
2.2 Small molecule Library […]
descr iption for Compounds printed in the amino aci d/small molecu le array for this st udy are list ed in […]
5.2 Small molecule array with “Map”
The array co nsi sts of triplica te su b-arrays of amino aci ds and sm all moleucl es (24 rows x 10 co lumns) with 400μm sp ot sp aci ng (ce ntre to ce ntre) with a minimum sp ot si ze of 100μm . Each sa mple is printed si x times, with each of the 3 su b-arrays incl uding at least Array layo ut si x negative co ntrol sa mples (print so lution only) and a posi tive co ntrol sa mples […]
Posi tive co ntrols provi de proof of su cce ssf ul immobiliza tion of the amine reagents and provi des for orientation for analysi s.
Sample Arrays are quality co ntrolled by a range of measu res. 1. Each printed array is post print identifica tion sca nned to co nfirm deposi tion of the sa mples on the array su rface prior to neutraliza tion and quality of the remaining sl ide su rface . 2. Post neutralize d sl ides are sca nned again to monitor co ntrol for remaining autofluoresce nce .
1. 6. Detector and Data Processing
Sca nning reso lution: […]
Sca n powers: Low lase r power. […]
analysi s Innopsys MAPIX.

The subject of the next assay is TlpALBD point mutants. As to the kind of experiment: SPR binding affinity of TlpALBD point mutants relative to WT. Details: species or system Helicobacter pylori SS1. To be noted: vs WT. The text has this: The periplasmic portion of TlpA (TlpALBD), amino acids 28 to 299, from Helicobacter pylori SS1 was cloned into a pBH4 expression vector (pBH4_TlpALBD) to generate an N-terminal 6×His-tagged construct, with a tobacco etch virus (TEV) protease site, under the control of isopropyl-β-D-thiogalactopyranoside (IPTG) ([19]). […] TlpALBD and all point mutants were purified as described previously by Sweeney et al. ([19]).
Purified TlpALBD was immobilized on a CM5 series S sensor chip, and binding affinities were tested using a Biacore S200 instrument (GE Healthcare) as described previously ([39], [57], [59]). Briefly, proteins were captured using an amine-coupling kit (GE Healthcare), in which the carboxylmethyl dextran matrix of the sensor chip was activated by the injection of a mixture of 0.2 M 1-ethyl-3-[(3-dimethylamino)propyl]-carbodiimide (EDC) and 0.05 M N-hydroxysuccinimide (NHS), followed by the neutralization of the remaining unreacted NHS ester groups by the injection of 1 M ethanolamine-HCl (pH 8.0). Purified TlpALBD was diluted in 10 mM sodium acetate buffer (pH 4.5) at a concentration of 100 μg/ml for immobilization to the chip. A total of 8,400 response units (RU) of TlpALBD were captured on flow cell 2. […] The data sets were analyzed using Biacore S200 evaluation software 2.0.2; sensorgrams were double-reference subtracted.
On the technique in general: In SPR one partner is held on a chip, and binding of the other changes the refractive index at the surface.

Turning to `Cl` [HCl, reference compound], in the assay on H. pylori PMSS1 ΔtlpA, the “Chemotactic response of ΔtlpA mutant” value was “repellent responses”.
The same measure, in the same setting: the same measure for `c1ccc(-c2ccccn2)nc1` [dipyridyl, 2,2′-dipyridyl, reference compound]: “significant attractant”.
In the case of `O=C(O)CCC(=O)C(=O)O` [α-Ketoglutarate, α-ketoglutaric acid], in the assay with H. pylori PMSS1 WT (WT, 0.1, 1, 10 mM tested, acidic ligand stocks pH neutralized with NaOH, 10 mM most significant), the “Chemotactic response (direction changes vs mock)” value is reported as “no significant direction changes”. In addition, the “Chemotactic response, ligand stock pH not adjusted” value in the assay on H. pylori PMSS1 WT (acidic in solution, unadjusted pH) was “significant TlpA-independent chemorepellent responses”. In addition, the Array result in the assay on TlpALBD is recorded as “+”. For the same compound, the “Change in binding affinity, any point mutant” value in the assay on TlpALBD point mutants is listed as “no appreciable change”.
